Experimental data from patent US10117916B2, “Peptides and combination of peptides for use in immunotherapy against CLL and other cancers” (immatics biotechnologies GmbH, priority 2015, dated 2018).

Legend:
CD8+ T cells = assay: In vitro immunogenicity: T-cell priming with aAPCs loaded with peptide/MHC and anti-CD28, pMHC multimer readout; assay type: cell-based, human; details: HLA-A*02 restricted peptides; CD8+ T cells of healthy donors; three stimulation cycles
Method: In an aspect, the peptides are pre-screened for immunogenicity before being included in the warehouse. By way of example, and not limitation, the immunogenicity of the peptides included in the warehouse is determined by a method comprising in vitro T-cell priming through repeated stimulations of CD8+ T cells from healthy donors with artificial antigen presenting cells loaded with peptide/MHC complexes and anti-CD28 antibody.
CD8+ T cells were primed using artificial APCs coated with anti-CD28 mAb and HLA-A*02 in complex with SeqID No 1 peptide (FIG. 3C, left panel), SeqID No 5 peptide (FIG. 3D left panel), SeqID No 32 peptide (FIG. 3E, left panel) and SeqID No 220 peptide (FIG. 3F, left panel), respectively. After three cycles of stimulation, the detection of peptide-reactive cells was performed by 2D multimer staining with A*02/SeqID No 1 (FIG. 3C), A*02/SeqID No 5 (FIG. 3D), A*02/SeqID No 32 (FIG. 3E) or A*02/SeqID No 220 (FIG. 3F). Right panels (FIGS. 3C, 3D, 3E and 3F) show control staining of cells stimulated with irrelevant A*02/peptide complexes. Viable singlet cells were gated for CD8+ lymphocytes. Boolean gates helped excluding false-positive events detected with multimers specific for different peptides.
In order to obtain information regarding the immunogenicity of the TUMAPs of the present invention, the inventors performed investigations using an in vitro T-cell priming assay based on repeated stimulations of CD8+ T cells with artificial antigen presenting cells (aAPCs) loaded with peptide/MHC complexes and anti-CD28 antibody.
In order to perform in vitro stimulations by artificial antigen presenting cells loaded with peptide-MHC complex (pMHC) and anti-CD28 antibody, the inventors first isolated CD8+ T cells from fresh HLA-A*02 leukapheresis products via positive selection using CD8 microbeads (Miltenyi Biotec, Bergisch-Gladbach, Germany) of healthy donors obtained from the University clinics Mannheim, Germany, after informed consent.
PBMCs and isolated CD8+ lymphocytes were incubated in T-cell medium (TCM) until use consisting of RPMI-Glutamax (Invitrogen, Karlsruhe, Germany) supplemented with 10% heat inactivated human AB serum (PAN-Biotech, Aidenbach, Germany), 100 U/ml Penicillin/100 μg/ml Streptomycin (Cambrex, Cologne, Germany), 1 mM sodium pyruvate (CC Pro, Oberdorla, Germany), 20 μg/ml Gentamycin (Cambrex). 2.5 ng/ml IL-7 (PromoCell, Heidelberg, Germany) and 10 U/ml IL-2 (Novartis Pharma, Nirnberg, Germany) were also added to the TCM at this step.
Generation of pMHC/anti-CD28 coated beads, T-cell stimulations and readout was performed in a highly defined in vitro system using four different pMHC molecules per stimulation condition and 8 different pMHC molecules per readout condition.
The purified co-stimulatory mouse IgG2a anti human CD28 Ab 9.3 (Jung et al., 1987) was chemically biotinylated using Sulfo-N-hydroxysuccinimidobiotin as recommended by the manufacturer (Perbio, Bonn, Germany). Beads used were 5.6 μm diameter streptavidin coated polystyrene particles (Bangs Laboratories, Illinois, USA).
800.000 beads/200 μl were coated in 96-well plates in the presence of 4×12.5 ng different biotin-pMHC, washed and 600 ng biotin anti-CD28 were added subsequently in a volume of 200 μl. Stimulations were initiated in 96-well plates by co-incubating 1×10^6 CD8+ T cells with 2×10^5 washed coated beads in 200 μl TCM supplemented with 5 ng/ml IL-12 (PromoCell) for 3 days at 37° C. Half of the medium was then exchanged by fresh TCM supplemented with 80 U/ml IL-2 and incubating was continued for 4 days at 37° C. This stimulation cycle was performed for a total of three times. For the pMHC multimer readout using 8 different pMHC molecules per condition, a two-dimensional combinatorial coding approach was used as previously described (Andersen et al., 2012) with minor modifications encompassing coupling to 5 different fluorochromes.

HLA-A*02:01 = HLA-A*02:01 (Homo sapiens, UniProt P04439, D140Y/D185E/D98H/E176V/E277Q/G131W/G231S/I119V/I121R/I166T/I218V/L300P/L318F/N151K/N90K/P208A/P217A/Q86G/Q94H/R138H/R169H/T345S); assay: MHC binding assay: UV-ligand exchange with β2m ELISA (peptide exchange yield); details: MHC class I binding score; binding to HLA-A*02:01 ranged by peptide exchange yield (UV-ligand exchange, β2m ELISA)
Summary of the method: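 Binding capacity is expressed as the yield of UV-mediated ligand exchange, reflecting how well each peptide stabilizes peptide-receptive MHC. Stabilized complexes are read out by anti-β2m HRP ELISA (450 nm) after streptavidin capture, with refolded MLA-001 monomer standards for quantitation.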

Substance | Wells positive [%] (CD8+ T cells) | Peptide Exchange (HLA-A*02:01)
2 (ALHRPDVYL; listed as Homo sapiens) [compound 2] | ″+″ (<20% = +) | ″+++″ (≥50 = +++)
380 (YLDRKLLTL; listed as Homo sapiens) [compound 380] | ″++++″ (> = 70% = ++++) | ″+++″ (≥50 = +++)
282 (LLRDGIELV; listed as Homo sapiens) [compound 282] | ″++″ (20%-49% = ++) | ″+++″ (≥50 = +++)
240 (ILARDILEI; listed as Homo sapiens) [compound 240] | ″+″ (<20% = +) | ″+++″ (≥50 = +++)
102 (IQDRAVPSL; listed as Homo sapiens) [compound 102] | ″+″ (<20% = +) | ″++″ (≥20% = ++)
69 (GLHQREIFL; listed as Homo sapiens) [compound 69] | ″+″ (<20% = +) | ″+++″ (≥50 = +++)
192 (YIQEYLTLL; listed as Homo sapiens) [compound 192] | ″+″ (<20% = +) | ″+++″ (≥50 = +++)
320 (TIAPVTVAV; listed as Homo sapiens) [compound 320] | ″+″ (<20% = +) | ″++++″ (≥75% = ++++)
322 (SLASIHVPL; listed as Homo sapiens) [compound 322] | ″+″ (<20% = +) | ″+++″ (≥50 = +++)
112 (KTLDVDATYEI; listed as Homo sapiens) [compound 112] | ″+″ (<20% = +) | ″+++″ (≥50 = +++)
